Assay results published in ChEMBL document CHEMBL5113392, “Novel hybrid pyrrolidinedione-thiazolidinones as potential anticancer agents: Synthesis and biological evaluation” (Eur J Med Chem, 2022).

Experiments:
[1] = tested on: RXF 393; test: Anticancer activity against human RXF 393 cells assessed as inhibition of cell growth at 10 uM incubated for 48 hrs by SRB assay; assay type: functional; details: RXF 393, 48 h, values are per cent of control
[2] = tested on: EKVX; test: Anticancer activity against human EKVX cells assessed as growth inhibition incubated for 48 hrs by SRB assay; assay type: functional
[3] = tested on: NCI-H522; test: Anticancer activity against human NCI-H522 cells assessed as growth inhibition incubated for 48 hrs by SRB assay; assay type: functional
[4] = tested on: KM12; test: Anticancer activity against human KM12 cells assessed as growth inhibition incubated for 48 hrs by SRB assay; assay type: functional
[5] = tested on: SF-268; test: Anticancer activity against human SF-268 cells assessed as growth inhibition incubated for 48 hrs by SRB assay; assay type: functional
[6] = tested on: U-251; test: Anticancer activity against human U-251 cells assessed as growth inhibition incubated for 48 hrs by SRB assay; assay type: functional
[7] = tested on: OVCAR-4; test: Anticancer activity against human OVCAR-4 cells assessed as growth inhibition incubated for 48 hrs by SRB assay; assay type: functional
[8] = tested on: OVCAR-8; test: Anticancer activity against human OVCAR-8 cells assessed as growth inhibition incubated for 48 hrs by SRB assay; assay type: functional
[9] = tested on: NCI/ADR-RES; test: Anticancer activity against human NCI/ADR-RES cells assessed as growth inhibition incubated for 48 hrs by SRB assay; assay type: functional
[10] = tested on: TK-10; test: Anticancer activity against human TK-10 cells assessed as growth inhibition incubated for 48 hrs by SRB assay; assay type: functional
[11] = tested on: BT-549; test: Anticancer activity against human BT-549 cells assessed as growth inhibition incubated for 48 hrs by SRB assay; assay type: functional
[12] = tested on: MDA-MB-468; test: Anticancer activity against human MDA-MB-468 cells assessed as growth inhibition incubated for 48 hrs by SRB assay; assay type: functional
[13] = tested on: EKVX; test: Anticancer activity against human EKVX cells assessed as total growth inhibition incubated for 48 hrs by SRB assay; assay type: functional
[14] = tested on: HOP-62; test: Anticancer activity against human HOP-62 cells assessed as total growth inhibition incubated for 48 hrs by SRB assay; assay type: functional
[15] = tested on: NCI-H23; test: Anticancer activity against human NCI-H23 cells assessed as total growth inhibition incubated for 48 hrs by SRB assay; assay type: functional
[16] = tested on: NCI-H460; test: Anticancer activity against human NCI-H460 cells assessed as total growth inhibition incubated for 48 hrs by SRB assay; assay type: functional
[17] = tested on: COLO 205; test: Anticancer activity against human COLO 205 cells assessed as total growth inhibition incubated for 48 hrs by SRB assay; assay type: functional
[18] = tested on: HCC 2998; test: Anticancer activity against human HCC 2998 cells assessed as total growth inhibition incubated for 48 hrs by SRB assay; assay type: functional
[19] = tested on: SNB-19; test: Anticancer activity against human SNB-19 cells assessed as total growth inhibition incubated for 48 hrs by SRB assay; assay type: functional
[20] = tested on: MDA-MB-435; test: Anticancer activity against human MDA-MB-435 cells assessed as total growth inhibition incubated for 48 hrs by SRB assay; assay type: functional
[21] = tested on: NCI/ADR-RES; test: Anticancer activity against human NCI/ADR-RES cells assessed as total growth inhibition incubated for 48 hrs by SRB assay; assay type: functional
[22] = tested on: SK-OV-3; test: Anticancer activity against human SK-OV-3 cells assessed as total growth inhibition incubated for 48 hrs by SRB assay; assay type: functional
[23] = tested on: ACHN; test: Anticancer activity against human ACHN cells assessed as total growth inhibition incubated for 48 hrs by SRB assay; assay type: functional
[24] = tested on: RXF 393; test: Anticancer activity against human RXF 393 cells assessed as total growth inhibition incubated for 48 hrs by SRB assay; assay type: functional
[25] = tested on: SN12C; test: Anticancer activity against human SN12C cells assessed as total growth inhibition incubated for 48 hrs by SRB assay; assay type: functional
[26] = tested on: PC-3; test: Anticancer activity against human PC-3 cells assessed as total growth inhibition incubated for 48 hrs by SRB assay; assay type: functional
[27] = tested on: Hs-578T; test: Anticancer activity against human Hs-578T cells assessed as total growth inhibition incubated for 48 hrs by SRB assay; assay type: functional
[28] = tested on: K562; test: Anticancer activity against human K562 cells assessed as lethality incubated for 48 hrs by SRB assay; assay type: functional; details: read-out: LC50 (the source's name)
[29] = tested on: SR; test: Anticancer activity against human SR cells assessed as lethality incubated for 48 hrs by SRB assay; assay type: functional; details: read-out: LC50 (the source's name)
[30] = tested on: NCI-H460; test: Anticancer activity against human NCI-H460 cells assessed as lethality incubated for 48 hrs by SRB assay; assay type: functional; details: read-out: LC50 (the source's name)
[31] = tested on: COLO 205; test: Anticancer activity against human COLO 205 cells assessed as lethality incubated for 48 hrs by SRB assay; assay type: functional; details: read-out: LC50 (the source's name)
[32] = tested on: HCC 2998; test: Anticancer activity against human HCC 2998 cells assessed as lethality incubated for 48 hrs by SRB assay; assay type: functional; details: read-out: LC50 (the source's name)
[33] = tested on: SF-268; test: Anticancer activity against human SF-268 cells assessed as lethality incubated for 48 hrs by SRB assay; assay type: functional; details: read-out: LC50 (the source's name)
[34] = tested on: SF-295; test: Anticancer activity against human SF-295 cells assessed as lethality incubated for 48 hrs by SRB assay; assay type: functional; details: read-out: LC50 (the source's name)
[35] = tested on: SNB-19; test: Anticancer activity against human SNB-19 cells assessed as lethality incubated for 48 hrs by SRB assay; assay type: functional; details: read-out: LC50 (the source's name)
[36] = tested on: OVCAR-3; test: Anticancer activity against human OVCAR-3 cells assessed as lethality incubated for 48 hrs by SRB assay; assay type: functional; details: read-out: LC50 (the source's name)
[37] = tested on: OVCAR-4; test: Anticancer activity against human OVCAR-4 cells assessed as lethality incubated for 48 hrs by SRB assay; assay type: functional; details: read-out: LC50 (the source's name)
[38] = tested on: CAKI-1; test: Anticancer activity against human CAKI-1 cells assessed as lethality incubated for 48 hrs by SRB assay; assay type: functional; details: read-out: LC50 (the source's name)
[39] = tested on: RXF 393; test: Anticancer activity against human RXF 393 cells assessed as lethality incubated for 48 hrs by SRB assay; assay type: functional; details: read-out: LC50 (the source's name)
[40] = tested on: TK-10; test: Anticancer activity against human TK-10 cells assessed as lethality incubated for 48 hrs by SRB assay; assay type: functional; details: read-out: LC50 (the source's name)
[41] = tested on: DU-145; test: Anticancer activity against human DU-145 cells assessed as lethality incubated for 48 hrs by SRB assay; assay type: functional; details: read-out: LC50 (the source's name)
[42] = tested on: MDA-MB-468; test: Anticancer activity against human MDA-MB-468 cells assessed as lethality incubated for 48 hrs by SRB assay; assay type: functional; details: read-out: LC50 (the source's name)
[43] = Anticancer activity against human HCT116-p53-null cells assessed as cell growth inhibition incubated for 72 hrs by MTT assay; assay type: functional
[44] = tested on: SK-OV-3; test: Anticancer activity against human SK-OV-3 cells assessed as cell growth inhibition incubated for 72 hrs by MTT assay; assay type: functional
[45] = Selectivity index, ratio of GI50 for human HaCaT cells to GI50 for human HCT116-p53-null cells; assay type: toxicity; details: HaCaT cells versus HCT116-p53-null cells, read-out: RatioGI50
[46] = Cytotoxicity against mitogen activated human peripheral blood lymphocytes assessed as cell growth inhibition incubated for 48 hrs by MTT assay; assay type: toxicity, cell-based, Lymphocyte
[47] = tested on: Lymphocyte; test: Induction of morphological changes in mitogen activated human peripheral blood lymphocytes assessed as increase in number of single cells incubated for 24 hrs by Hoechst 33258 and propidium iodide staining based fluorescence microscopy; assay type: toxicity, cell-based
[48] = tested on: Salmon testes DNA; test: Displacement of methyl green from salmon sperm DNA at 10 uM measured after 2 hrs by fluorescence plate reader method relative to control; assay type: nucleic-acid assay; details: Salmo salar
[49] = tested on: LOX IMVI; test: Anticancer activity against human LOX IMVI cells assessed as inhibition of cell growth at 10 uM incubated for 48 hrs by SRB assay; values are per cent of control

O=C1CC(N2C(=O)/C(=C/C(Cl)=C/c3ccc([N+](=O)[O-])cc3)SC2=S)C(=O)N1c1ccc(Cl)cc1 (stereo not drawn)
growth, % of control at 10 µM [1]: -64.1%
GI50 [2]: 3.11 µM
GI50 [3]: 1.73 µM
GI50 [4]: 1.96 µM
GI50 [5]: 3.07 µM
GI50 [6]: 0.477 µM
GI50 [7]: 5.55 µM
GI50 [8]: 0.832 µM
GI50 [9]: 1.01 µM
GI50 [10]: 2.79 µM
GI50 [11]: 1.75 µM
GI50 [12]: 1.33 µM
TGI [13]: > 100 µM
TGI [14]: 5.5 µM
TGI [15]: 4.31 µM
TGI [16]: > 100 µM
TGI [17]: 3.76 µM
TGI [18]: 3.03 µM
TGI [19]: 2.97 µM
TGI [20]: 3.39 µM
TGI [21]: 6.19 µM
TGI [22]: > 100 µM
TGI [23]: 3.48 µM
TGI [24]: 2.72 µM
TGI [25]: 11.1 µM
TGI [26]: 4.15 µM
TGI [27]: > 100 µM
CC50 [28]: 54.9 µM
CC50 [29]: 57.6 µM
CC50 [30]: > 100 µM
CC50 [31]: > 100 µM
CC50 [32]: 5.76 µM
CC50 [33]: > 100 µM
CC50 [34]: 7.51 µM
CC50 [35]: 7.54 µM
CC50 [36]: 8.89 µM
CC50 [37]: > 100 µM
CC50 [38]: 9.52 µM
CC50 [39]: 5.86 µM
CC50 [40]: > 100 µM
CC50 [41]: > 100 µM
CC50 [42]: 7.22 µM
GI50 [43]: 6 µM
GI50 [44]: 65.9 µM
selectivity ratio [45]: 10.7
GI50 at 48 h [46]: 28.9 µM
Activity [47]: Toxic
Activity [48]: 7.9%
growth percent at 10 µM [49]: -71.7%

O=C1CC(N2C(=O)/C(=C/C(Cl)=C/c3ccc([N+](=O)[O-])cc3)SC2=S)C(=O)N1c1ccc(O)cc1 (stereo not drawn)
growth, % of control at 10 µM [1]: -70.5%
GI50 [2]: 3.25 µM
GI50 [3]: 1.86 µM
GI50 [4]: 1.83 µM
GI50 [5]: 2.43 µM
GI50 [6]: 0.597 µM
GI50 [7]: 5.13 µM
GI50 [8]: 2.16 µM
GI50 [9]: 2.13 µM
GI50 [10]: 1.92 µM
GI50 [11]: 2.03 µM
GI50 [12]: 1.87 µM
TGI [13]: 11.7 µM
TGI [14]: 6.63 µM
TGI [15]: 3.52 µM
TGI [16]: 6.75 µM
TGI [17]: 5.04 µM
TGI [18]: 2.92 µM
TGI [19]: 3.47 µM
TGI [20]: 4.34 µM
TGI [21]: 12.1 µM
TGI [22]: 9.26 µM
TGI [23]: 2.76 µM
TGI [24]: 3.22 µM
TGI [25]: 5.88 µM
TGI [26]: 2.87 µM
TGI [27]: 12.6 µM
CC50 [28]: > 100 µM
CC50 [29]: > 100 µM
CC50 [30]: 39.5 µM
CC50 [31]: 56 µM
CC50 [32]: 5.76 µM
CC50 [33]: 47.1 µM
CC50 [34]: 5.54 µM
CC50 [35]: 8.97 µM
CC50 [36]: 4.96 µM
CC50 [37]: 41.9 µM
CC50 [38]: 5.12 µM
CC50 [39]: 6.76 µM
CC50 [40]: 7.46 µM
CC50 [41]: 6.62 µM
CC50 [42]: > 100 µM
GI50 [43]: 5.65 µM
GI50 [44]: > 100 µM
selectivity ratio [45]: 13
GI50 at 48 h [46]: 51.2 µM
Activity [47]: Toxic
Activity [48]: 6.2%
growth percent at 10 µM [49]: -83.7%
